According to patent US20260223844A1, “METHODS AND COMPOSITIONS FOR ALTERING METABOLITES IN HOP PLANTS” (Impello Biosciences, Inc., priority 2023, published 2026):

Assays:
Assay type in all cases: in vivo, Humulus lupulus
CTZ hop plants [1] = assay: Terpene analysis of treated hop plants, Example 4 (modified EBC 7.12, GC-FID); details: % of overall terpene content; for Terpene content: Geranyl acetate 1*: (2E) isomer; for Terpene content: Geranyl acetate 2**: (2Z) isomer; for Terpene content: Nerolidol 1*: (E) isomer; for Terpene content: Nerolidol 2**: (Z) isomer
Protocol: (§1) Hop plants were treated with illustrative elicitor compositions of the disclosure to determine the effect of treatment on hop bitter acid and terpene content. The hop cultivar was CTZ, also known as Columbus, Tomahawk, or Zeus, three trade names owned by various private corporations for the same variety of hop. The treatments were as follows: 1 mM, 5 mM, and 10 mM MDJ Foliar Spray. Harvested hops were analyzed for total oil, beta acid, alpha acid, and terpene content. Total oil and terpene analysis was performed according to a modified version of Analytica EBC Method 7.12, employing Capillary Gas Chromatography Flame Ionization Detection. Plants were measured in triplicate from each treatment group; results represent the average of three samples. Alpha/beta/iso-alpha acid analysis was performed using HPLC, employing a modified version of Analytica EBC Method 7.8.

CTZ hop plants [2] = assay: Total oil analysis of treated hop plants, Example 4
Protocol: as §1

Cashmere Hops [3] = assay: Terpene analysis of treated hop plants, Example 2 (EBC 7.12, GC-FID); details: 5 mM MDJ foliar spray vs control
Protocol: (§2) Hop plants were treated with illustrative elicitor compositions of the disclosure to determine the effect of treatment on hop terpene content. The hop cultivar was Cashmere Hops. The treatments were as follows: Control (“CK2”)—Untreated control; TR1—1 mM MDJ Foliar Spray: TR2—5 mM MDJ Foliar Spray.
(§3) Harvested hops were analyzed for total oil, beta acid, alpha acid, terpene, and thiol content. Total oil analysis was performed according to Analytica EBC Method 7.10, employing steam distillation. Alpha/beta/iso-alpha acid analysis was performed using HPLC, employing a modified version of Analytica EBC Method 7.8. Terpene analysis was performed according to Analytica EBC Method 7.12, employing Capillary Gas Chromatography Flame Ionization Detection. Thiol composition was analyzed via gas chromatography with sulfur chemiluminescence detector (GC-SCD).

Cashmere Hops [4] = assay: Bitter acids analysis of treated hop plants, Example 2 (HPLC, modified EBC 7.8); details: MDJ foliar spray 1 mM or 5 mM vs untreated control
Protocol: as §2, §3

CTZ hop plants [5] = assay: Alpha/beta acid analysis of treated hop plants, Example 4 (HPLC, modified EBC 7.8)
Protocol: as §1

`CCCCCC1C(=O)CCC1CC(=O)OC` (stereo not drawn) [MDJ, methyl dihydrojasmonate] was tested, and the “Terpene content: 2-Undecanone” value (CTZ hop plants [1]; 1 mM MDJ foliar spray) was 0.00%, the “Terpene content: Alpha-pinene” value (CTZ hop plants [1]; 1 mM MDJ foliar spray) was 0.37% and the “Terpene content: Beta-ionone” value (CTZ hop plants [1]; 1 mM MDJ foliar spray) was 0.08%. The “Terpene content: Beta-pinene” value (CTZ hop plants [1]; 1 mM MDJ foliar spray) was 0.36%, the “Terpene content: Caryophyllene” value (CTZ hop plants [1]; 1 mM MDJ foliar spray) was 16.6% and the “Terpene content: Caryophyllene oxide” value (CTZ hop plants [1]; 1 mM MDJ foliar spray) was 0.12%. The “Terpene content: Citral” value (CTZ hop plants [1]; 1 mM MDJ foliar spray) was 0.32%, the “Terpene content: Citronellene” value (CTZ hop plants [1]; 1 mM MDJ foliar spray) was 0.42% and the “Terpene content: Citronellol” value (CTZ hop plants [1]; 1 mM MDJ foliar spray) was 0.00%. The “Terpene content: Farnesene” value (CTZ hop plants [1]; 1 mM MDJ foliar spray) was 0.00%, the “Terpene content: Geraniol” value (CTZ hop plants [1]; 1 mM MDJ foliar spray) was 0.52% and the “Terpene content: Humulene” value (CTZ hop plants [1]; 1 mM MDJ foliar spray) was 38.7%. The “Terpene content: Limonene” value (CTZ hop plants [1]; 1 mM MDJ foliar spray) was 0.10%, the “Terpene content: Linalool” value (CTZ hop plants [1]; 1 mM MDJ foliar spray) was 0.21% and the “Terpene content: Methyl Heptanoate” value (CTZ hop plants [1]; 1 mM MDJ foliar spray) was 0.06%. For the same compound, the “Terpene content: Methyl Laurate” value (CTZ hop plants [1]; 1 mM MDJ foliar spray) was 0.39%, the “Terpene content: Methyl Octanoate” value (CTZ hop plants [1]; 1 mM MDJ foliar spray) was 0.44% and the “Terpene content: Methyl thiohexanoate” value (CTZ hop plants [1]; 1 mM MDJ foliar spray) was 0.05%. The “Terpene content: Myrcene” value (CTZ hop plants [1]; 1 mM MDJ foliar spray) was 27.0%, the “Terpene content: Nerol” value (CTZ hop plants [1]; 1 mM MDJ foliar spray) was 0.03% and the “Terpene content: Ocimene” value (CTZ hop plants [1]; 1 mM MDJ foliar spray) was 0.39%. The “Terpene content: Terpinolene” value (CTZ hop plants [1]; 1 mM MDJ foliar spray) was 0.25%, the “Terpene content: Unidentified” value (CTZ hop plants [1]; 1 mM MDJ foliar spray) was 13.0% and the “Terpene content: Geranyl acetate 1*” value (CTZ hop plants [1]; 1 mM MDJ foliar spray) was 0.38%. For the same compound, the “Terpene content: Geranyl acetate 2**” value (CTZ hop plants [1]; 1 mM MDJ foliar spray) was 0.07%, the “Terpene content: Nerolidol 1*” value (CTZ hop plants [1]; 1 mM MDJ foliar spray) was 0.09% and the “Terpene content: Nerolidol 2**” value (CTZ hop plants [1]; 1 mM MDJ foliar spray) was 0.06%. The “Terpene content: 2-Undecanone” value (CTZ hop plants [1]; 5 mM MDJ foliar spray) was 0.01%, the “Terpene content: Alpha-pinene” value (CTZ hop plants [1]; 5 mM MDJ foliar spray) was 0.14% and the “Terpene content: Beta-ionone” value (CTZ hop plants [1]; 5 mM MDJ foliar spray) was 0.59%. For the same compound, the “Terpene content: Beta-pinene” value (CTZ hop plants [1]; 5 mM MDJ foliar spray) was 0.35%, the “Terpene content: Caryophyllene” value (CTZ hop plants [1]; 5 mM MDJ foliar spray) was 13.4% and the “Terpene content: Caryophyllene oxide” value (CTZ hop plants [1]; 5 mM MDJ foliar spray) was 0.04%. For the same compound, the “Terpene content: Citral” value (CTZ hop plants [1]; 5 mM MDJ foliar spray) was 0.11%, the “Terpene content: Citronellene” value (CTZ hop plants [1]; 5 mM MDJ foliar spray) was 0.42% and the “Terpene content: Citronellol” value (CTZ hop plants [1]; 5 mM MDJ foliar spray) was 0.00%. For the same compound, the “Terpene content: Farnesene” value (CTZ hop plants [1]; 5 mM MDJ foliar spray) was 0.03%, the “Terpene content: Geraniol” value (CTZ hop plants [1]; 5 mM MDJ foliar spray) was 0.78% and the “Terpene content: Humulene” value (CTZ hop plants [1]; 5 mM MDJ foliar spray) was 27.3%. The “Terpene content: Limonene” value (CTZ hop plants [1]; 5 mM MDJ foliar spray) was 0.09%, the “Terpene content: Linalool” value (CTZ hop plants [1]; 5 mM MDJ foliar spray) was 0.31% and the “Terpene content: Methyl Heptanoate” value (CTZ hop plants [1]; 5 mM MDJ foliar spray) was 0.05%. For the same compound, the “Terpene content: Methyl Laurate” value (CTZ hop plants [1]; 5 mM MDJ foliar spray) was 0.11%, the “Terpene content: Methyl Octanoate” value (CTZ hop plants [1]; 5 mM MDJ foliar spray) was 0.31% and the “Terpene content: Methyl thiohexanoate” value (CTZ hop plants [1]; 5 mM MDJ foliar spray) was 0.05%. The “Terpene content: Myrcene” value (CTZ hop plants [1]; 5 mM MDJ foliar spray) was 39.0%, the “Terpene content: Nerol” value (CTZ hop plants [1]; 5 mM MDJ foliar spray) was 0.00% and the “Terpene content: Ocimene” value (CTZ hop plants [1]; 5 mM MDJ foliar spray) was 0.28%. For the same compound, the “Terpene content: Terpinolene” value (CTZ hop plants [1]; 5 mM MDJ foliar spray) was 0.11%, the “Terpene content: Unidentified” value (CTZ hop plants [1]; 5 mM MDJ foliar spray) was 15.7% and the “Terpene content: Geranyl acetate 1*” value (CTZ hop plants [1]; 5 mM MDJ foliar spray) was 0.43%. The “Terpene content: Geranyl acetate 2**” value (CTZ hop plants [1]; 5 mM MDJ foliar spray) was 0.11%, the “Terpene content: Nerolidol 1*” value (CTZ hop plants [1]; 5 mM MDJ foliar spray) was 0.14% and the “Terpene content: Nerolidol 2**” value (CTZ hop plants [1]; 5 mM MDJ foliar spray) was 0.12%. The “Terpene content: 2-Undecanone” value (CTZ hop plants [1]; 10 mM MDJ foliar spray) was 0.07%, the “Terpene content: Alpha-pinene” value (CTZ hop plants [1]; 10 mM MDJ foliar spray) was 0.11% and the “Terpene content: Beta-ionone” value (CTZ hop plants [1]; 10 mM MDJ foliar spray) was 0.52%. The “Terpene content: Beta-pinene” value (CTZ hop plants [1]; 10 mM MDJ foliar spray) was 0.54%, the “Terpene content: Caryophyllene” value (CTZ hop plants [1]; 10 mM MDJ foliar spray) was 13.2% and the “Terpene content: Caryophyllene oxide” value (CTZ hop plants [1]; 10 mM MDJ foliar spray) was 0.07%. The “Terpene content: Citral” value (CTZ hop plants [1]; 10 mM MDJ foliar spray) was 0.20%, the “Terpene content: Citronellene” value (CTZ hop plants [1]; 10 mM MDJ foliar spray) was 0.39% and the “Terpene content: Citronellol” value (CTZ hop plants [1]; 10 mM MDJ foliar spray) was 0.00%. For the same compound, the “Terpene content: Farnesene” value (CTZ hop plants [1]; 10 mM MDJ foliar spray) was 0.02%, the “Terpene content: Geraniol” value (CTZ hop plants [1]; 10 mM MDJ foliar spray) was 0.82% and the “Terpene content: Humulene” value (CTZ hop plants [1]; 10 mM MDJ foliar spray) was 24.7%. For the same compound, the “Terpene content: Limonene” value (CTZ hop plants [1]; 10 mM MDJ foliar spray) was 0.09%, the “Terpene content: Linalool” value (CTZ hop plants [1]; 10 mM MDJ foliar spray) was 0.31% and the “Terpene content: Methyl Heptanoate” value (CTZ hop plants [1]; 10 mM MDJ foliar spray) was 0.06%. For the same compound, the “Terpene content: Methyl Laurate” value (CTZ hop plants [1]; 10 mM MDJ foliar spray) was 0.19%, the “Terpene content: Methyl Octanoate” value (CTZ hop plants [1]; 10 mM MDJ foliar spray) was 0.24% and the “Terpene content: Methyl thiohexanoate” value (CTZ hop plants [1]; 10 mM MDJ foliar spray) was 0.02%. For the same compound, the “Terpene content: Myrcene” value (CTZ hop plants [1]; 10 mM MDJ foliar spray) was 39.6%, the “Terpene content: Nerol” value (CTZ hop plants [1]; 10 mM MDJ foliar spray) was 0.02% and the “Terpene content: Ocimene” value (CTZ hop plants [1]; 10 mM MDJ foliar spray) was 0.16%. For the same compound, the “Terpene content: Terpinolene” value (CTZ hop plants [1]; 10 mM MDJ foliar spray) was 0.05%, the “Terpene content: Unidentified” value (CTZ hop plants [1]; 10 mM MDJ foliar spray) was 17.8% and the “Terpene content: Geranyl acetate 1*” value (CTZ hop plants [1]; 10 mM MDJ foliar spray) was 0.38%. For the same compound, the “Terpene content: Geranyl acetate 2**” value (CTZ hop plants [1]; 10 mM MDJ foliar spray) was 0.09%, the “Terpene content: Nerolidol 1*” value (CTZ hop plants [1]; 10 mM MDJ foliar spray) was 0.17% and the “Terpene content: Nerolidol 2**” value (CTZ hop plants [1]; 10 mM MDJ foliar spray) was 0.22%. It also gave a Total oil (CTZ hop plants [2]; 1 mM MDJ foliar spray) of 1.43 mL/100 g, a Total oil (CTZ hop plants [2]; 5 mM MDJ foliar spray) of 2.22 mL/100 g and a Total oil (CTZ hop plants [2]; 10 mM MDJ foliar spray) of 1.72 mL/100 g. The caryophyllene content (Cashmere Hops [3]) was “increased”, the caryophyllene oxide content (Cashmere Hops [3]) was “decreased” and the citral content (Cashmere Hops [3]) was “decreased”. For the same compound, the farnesene content (Cashmere Hops [3]) was “increased”, the geraniol content (Cashmere Hops [3]) was “increased” and the humulene content (Cashmere Hops [3]) was “increased”. For the same compound, the methyl heptanoate content (Cashmere Hops [3]) was “decreased”, the methyl laurate content (Cashmere Hops [3]) was “decreased” and the methyl octanoate content (Cashmere Hops [3]) was “increased”. The methyl thiohexanoate content (Cashmere Hops [3]) was “increased”, the myrcene content (Cashmere Hops [3]) was “decreased” and the nerolidol content (Cashmere Hops [3]) was “increased”. For the same compound, the ocimene content (Cashmere Hops [3]) was “increased”, the q-pinene content (Cashmere Hops [3]) was “increased” and the β-pinene content (Cashmere Hops [3]) was “decreased”. For the same compound, the “content of the alpha acid analogue cohumulone” value (Cashmere Hops [4]) was “decreased”, the beta acid content (Cashmere Hops [4]; especially at 5 mM) was “statistically significant increase” and the “Alpha Acids” value (CTZ hop plants [5]; 1 mM MDJ foliar spray) was 4.83%. For the same compound, the “Beta Acids” value (CTZ hop plants [5]; 1 mM MDJ foliar spray) was 3.53%, the Cohumulone (CTZ hop plants [5]; 1 mM MDJ foliar spray) was 21.43 % alpha and the Colupulone (CTZ hop plants [5]; 1 mM MDJ foliar spray) was 43.53 % beta. The “Alpha Acids” value (CTZ hop plants [5]; 5 mM MDJ foliar spray) was 6.10%, the “Beta Acids” value (CTZ hop plants [5]; 5 mM MDJ foliar spray) was 3.83% and the Cohumulone (CTZ hop plants [5]; 5 mM MDJ foliar spray) was 23.37 % alpha. For the same compound, the Colupulone (CTZ hop plants [5]; 5 mM MDJ foliar spray) was 49.3 % beta, the “Alpha Acids” value (CTZ hop plants [5]; 10 mM MDJ foliar spray) was 7.80% and the “Beta Acids” value (CTZ hop plants [5]; 10 mM MDJ foliar spray) was 4.23%. For the same compound, the Cohumulone (CTZ hop plants [5]; 10 mM MDJ foliar spray) was 26.03 % alpha, the Colupulone (CTZ hop plants [5]; 10 mM MDJ foliar spray) was 43.47 % beta and the “Colupolone content, as a percentage of overall beta acids” value (CTZ hop plants [5]; 1, 5, 10 mM MDJ foliar spray) was “highest at 5 mM treatment”. For the same compound, the alpha acid content (CTZ hop plants [5]; 1, 5, 10 mM MDJ foliar spray) was “dose-dependent increase”, the beta acid content (CTZ hop plants [5]; 1, 5, 10 mM MDJ foliar spray) was “dose-dependent increase” and the “Cohumulone content as a percentage of overall alpha acids” value (CTZ hop plants [5]; with increasing MDJ concentration (1, 5, 10 mM)) was “increased”.
